# Results reported in patent publication US5750712A, “2-(n-cyanoimino)-thiazolidin-4-one derivatives” (priority 1994, dated 1998).
# Structures can show the parent of a compound that is named as a salt.
# Biological target: aldose reducing enzyme (Homo sapiens, UniProt P15121)
# Experiment: Aldose reducing enzyme inhibiting activity (method of Hayman et al.)
# Assay type: biochemical, Recombinant
# Conditions: 1.0×10^-7 mol concentration level of the tested compound; human recombinant enzyme; read-out: Inhibition rate (%)
row,Structure (SMILES),inhibition at 0.1 µM [%]
1,"CC(=Cc1ccccc1)C=C1SC(=NC#N)NC1=O [Example 1, 2-(N-cyanoimino)-5-(2-methyl-3-phenylpropenylidene) thiazolidin-4-one]",72
2,"N#CN=C1NC(=O)C(=Cc2ccc3c(c2)OCO3)S1 [Example 4, 2-(N-cyanoimino)-5-(3,4-methylenedioxybenzylidene) thiazolidin-4-one]",44
3,"COc1ccc2cc(C=C3SC(=NC#N)NC3=O)ccc2c1 [Example 8, 2-(N-cyanoimino)-5-[2-(6-methoxynaphthyl)methylene]thiazolidin-4-one]",68
4,"N#CN=C1NC(=O)C(=Cc2cccc3ccccc23)S1 [Example 9, 2-(N-cyanoimino)-5-(1-naphthylmethylene) thiazolidin-4-one]",20
5,"COc1cc(C=C2SC(=NC#N)NC2=O)ccc1O [Example 10, 2-(N-cyanoimino)-5-(4-hydroxy-3-methoxybenzylidene) thiazolidin-4-one]",100

# More lines, now with the values ahead:
row,inhibition at 0.1 µM [%],Structure (SMILES)
1,100,"CC(=Cc1ccccc1)C=C1SC(=NC#N)N(CC(=O)O)C1=O [Example 2, 2-(N-cyanoimino)-5-(2-methyl-3-phenylpropenylidene)-4-oxo-3-thiazolidine acetic acid]"
2,12,"CC(=Cc1ccccc1)C=C1SC(=NC#N)N(C)C1=O [Example 3, 2-(N-cyanoimino)-3-methyl-5-(2-methyl-3-phenylpropenylidene) thiazolidin-4-one]"
3,44,"N#CN=C1NC(=O)C(=Cc2ccc3ccccc3c2)S1 [Example 5, 2-(N-cyanoimino)-5-(2-naphthylmethylene) thiazolidin-4-one]"
4,32,"N#CN=C1NC(=O)C(=Cc2ccccc2)S1 [Example 6, 5-benzylidene-2-(N-cyanoimino)-4-oxythiazolidine]"
5,44,"N#CN=C1NC(=O)C(=CC=Cc2ccccc2)S1 [Example 7, 2-(N-cyanoimino)-5-(3-phenylpropenylidene) thiazolidin-4-one]"
6,52,"Cc1cccc(C=C2SC(=NC#N)NC2=O)c1 [Example 11, 2-(N-cyanoimino)-5-(3-methylbenzylidene) thiazolidin-4-one]"
7,84,"COc1ccccc1C=CC=C1SC(=NC#N)NC1=O [Example 12, 2-(N-cyanoimino)-5-[3-(2-methoxyphenyl)propenylidene] thiazolidin-4-one]"
8,12,"CCC(=C1SC(=NC#N)NC1=O)c1ccccc1 [Example 14, 2-(N-cyanoimino)-5-(1-phenylpropylidene) thiazolidin-4-one]"
9,64,"CC(=C1SC(=NC#N)NC1=O)c1ccc2ccccc2c1 [Example 15, 2-(N-cyanoimino)-5-[1-(2-naphthyl)ethylidene] thiazolidin-4-one]"

# Same assay, conditions: read-out: Inhibition rate (%)
row,Structure (SMILES),inhibition at 0.1 µM [%]
1,"CC(=C1SC(=NC#N)NC1=O)c1ccccc1 [Example 13, 2-(N-cyanoimino)-5-(1-phenylethylidene) thiazolidin-4-one potassium salt]",60

# Tested on: 5-lipoxygenase
# Experiment: not given
# Conditions: in words, prior-art compound; cited from earlier work
row,Structure (SMILES),5-lipoxygenase inhibiting action
1,CC(C)(C)c1cc(C=C2SC(=NC#N)NC2=O)cc(C(C)(C)C)c1O,5-lipoxygenase and cycloxygenase inhibiting actions

# Tested on: cycloxygenase
# Experiment: not given
# Conditions: in words, prior-art compound; cited from earlier work
row,Structure (SMILES),cycloxygenase inhibiting action
1,CC(C)(C)c1cc(C=C2SC(=NC#N)NC2=O)cc(C(C)(C)C)c1O,5-lipoxygenase and cycloxygenase inhibiting actions

# Tested on: aldose reducing enzyme
# Experiment: not given
# Conditions: in words, prior-art compound; cited from earlier work
row,Structure (SMILES),aldose reducing enzyme inhibiting action
1,CC(C)(C)c1cc(C=C2SC(=NC#N)NC2=O)cc(C(C)(C)C)c1O,no aldose reducing enzyme inhibiting action
